From the NIST ThermoML archive (doi:10.1016/j.fluid.2010.01.002)

Tests used:
[1] = refractive index (Na D-line) (dimensionless); details: 101.33 kPa, Liquid, Standard Abbe refractometry
[2] = 101.33 kPa, Liquid; for viscosity: Capillary tube (Ostwald / Ubbelohde) method; for mass density: Vibrating tube method
[3] = mn = molality of the nth substance listed, in mol/kg; details: 101 kPa, Liquid, Vibrating tube method

COS(=O)(=O)[O-].Cn1cc[n+](C)c1 [1,3-dimethylimidazolium methylsulfate]
Details | mass density, [2] [kg/m3] | refractive index, [1] | viscosity, [2] [mPa·s]
298.15 K | 1341.52 | 1.481 | 72.16
308.15 K | 1334.05 | 1.4782 | 54.42
318.15 K | 1324.8 | 1.475 | 31.75
328.15 K | 1320.61 | 1.4732 | 22.75

COS(=O)(=O)[O-].Cn1cc[n+](C)c1 [1,3-dimethylimidazolium methylsulfate] + CC#N
mass density [kg/m3], [3]
Details | 298.15 K | 308.15 K | 318.15 K | 328.15 K
m1 = 0.0154 | 778.02 | 767.2 | 756.08 | 745.07
m1 = 0.0262 | 778.92 | 768.15 | 757.02 | 746.08
m1 = 0.0367 | 779.78 | 769.04 | 757.94 | 746.91
m1 = 0.0442 | 780.39 | 769.64 | 758.56 | 747.53
m1 = 0.0552 | 781.25 | 770.6 | 759.47 | 748.49
m1 = 0.0697 | 782.39 | 771.79 | 760.65 | 749.74
m1 = 0.1092 | 785.54 | 775.06 | 763.89 | 753.13
m1 = 0.1516 | 788.85 | 778.45 | 767.29 | 756.65
m1 = 0.2159 | 793.88 | 783.51 | 772.5 | 761.83
m1 = 0.2981 | 799.99 | 789.92 | 779.03 | 768.5
m1 = 0.4347 | 809.98 | 799.82 | 788.98 | 778.24
m1 = 0.5442 | 817.8 | 807.73 | 797.07 | 786.34
m1 = 0.8609 | 839.07 | 828.64 | 818.22 | 808.33

COS(=O)(=O)[O-].Cn1cc[n+](C)c1 [1,3-dimethylimidazolium methylsulfate] + CN(C)C=O
mass density [kg/m3], [3]
Details | 298.15 K | 308.15 K | 318.15 K | 328.15 K
m1 = 0.0143 | 945.09 | 935.57 | 925.94 | 916.21
m1 = 0.0192 | 945.45 | 935.93 | 926.32 | 916.62
m1 = 0.0305 | 946.29 | 936.8 | 927.22 | 917.63
m1 = 0.0455 | 947.35 | 937.9 | 928.37 | 918.8
m1 = 0.06 | 948.34 | 938.95 | 929.46 | 919.9
m1 = 0.0821 | 949.86 | 940.49 | 930.98 | 921.44
m1 = 0.1125 | 951.98 | 942.64 | 933.15 | 923.55
m1 = 0.1679 | 955.78 | 946.48 | 937.03 | 927.44
m1 = 0.2459 | 961 | 951.8 | 942.42 | 932.69
m1 = 0.3069 | 964.96 | 955.78 | 946.45 | 936.8
m1 = 0.6259 | 984.18 | 975.15 | 965.75 | 956.63

COS(=O)(=O)[O-].Cn1cc[n+](C)c1 [1,3-dimethylimidazolium methylsulfate] + CO
mass density [kg/m3], [3]
Details | 298.15 K | 308.15 K | 318.15 K | 328.15 K
m1 = 0.0108 | 787.65 | 778.14 | 768.55 | 758.82
m1 = 0.0199 | 788.47 | 778.98 | 769.42 | 759.7
m1 = 0.0341 | 789.69 | 780.24 | 770.71 | 761.02
m1 = 0.0419 | 790.3 | 780.9 | 771.38 | 761.68
m1 = 0.0531 | 791.11 | 781.85 | 772.32 | 762.63
m1 = 0.0711 | 792.35 | 783.26 | 773.6 | 764.11
m1 = 0.0929 | 794.09 | 784.9 | 775.34 | 765.65
m1 = 0.1212 | 796.29 | 787.16 | 777.61 | 767.99
m1 = 0.1679 | 799.9 | 790.82 | 781.31 | 771.8
m1 = 0.2084 | 802.98 | 793.97 | 784.46 | 775.01
m1 = 0.2504 | 806.12 | 797.15 | 787.7 | 778.32
m1 = 0.2973 | 809.59 | 800.65 | 791.16 | 781.85
m1 = 0.3949 | 816.69 | 807.86 | 798.36 | 789.21
m1 = 0.4965 | 823.95 | 815.03 | 805.55 | 796.68
m1 = 0.5976 | 831 | 822.1 | 812.65 | 803.73
m1 = 0.7303 | 839.93 | 830.93 | 821.45 | 812.4
m1 = 0.9907 | 856.57 | 847.45 | 838.09 | 828.74
